Measured values as given in US20220142209A1, “METHODS AND COMPOSITIONS FOR IMPROVING THE TASTE OF DIET COLA SODAS AND OTHER BEVERAGES” (priority 2019, published 2022).

Tests used:
[1] = Informal taste test of additives mixed into DIET COKE; type: in vivo, people
Source text: To provide enabling context for some of the embodiments disclosed herein, simple formulations are described here (with more enablement in the Exemplary Embodiments below). Pour into a cup about 7.5 ounces of a DIET COKE® that includes just aspartame. Mix in about one to two teaspoons of ENACO ERC-A20 decocainized liquid coca leaf extract, both liquids at room temperature. […] Adding a bag of sugar (5 grams) results in an even more pleasant taste while providing a cola soda with 80% less sugar. Using glucose instead of sugar (sucrose) produce a fructose-free, low-sugar, cola soda.
(§1) Taste and aroma are not separate sensory experiences. For example, when many people are afflicted with the common cold, and have stuffy noses, they can lose some or all of the taste of foods. This is attributed to the odor sensors in the nose being blocked. Also, when many people eat foods, they can have a time dependent sensory experience, as the (chewed) food travels to the back of the mouth and then some of the aromas enter the back of the nasal cavity, due to retronasal smell (versus orthonasal smell due to aromas entering the front of the nasal cavity, for example, when you sniff a rose). Thus, in many of the embodiments disclosed herein, the term “taste and/or aroma” is used. Also, the Exemplary Embodiments that follows, statements in changes in taste and/or aroma are based on the opinions of a few people. Not all people drinking the embodiments disclosed herein will experience the same degree of improvement in taste and/or aroma.
For the exemplary embodiments that follow, the examples are performed with all liquids at room temperature. Sodas typically taste more pleasant at lower temperatures (sodas retain carbonation better at lower temperatures, which creates a better taste for many people). Any improvements in taste and/or aroma resulting from any of the following embodiments at room temperature are similar, if not more pleasant, at lower temperatures down to freezing. Tastes and/or aromas can also vary due to the use of soda container: glass, plastic, metal or paper. There are many who think that cola sodas taste best when consumed from glass bottles. For many of the exemplary embodiments disclosed herein, Bodum PAVINA® Coffee Mugs, double-wall insulated glass mugs, 8-ounce size, are used.
One embodiment of an improved cola beverage product is understood with the following exemplary method and resulting exemplary article of manufacture. Pour about 7.5 ounces of DIET COKE® (about 220 grams—about 222 milliliters) into a container such as a cup. Mix in about one half teaspoon to two teaspoons (about 2.5 to 10 grams—about 2.5 to 10 milliliters) of coca leaf extract, for example, the ERC-A20 liquid coca extract available from ENACO (Lima, Peru) or its equivalents. […] Any coca leaf extract with similar chemical components (see FIG. 4 and FIG. 11, for example) to ERC-A20 (the version of the extract circa 2018/2019) can be used, and the extracts can be added to other diet sodas such as COKE ZERO® and COKE ZERO SUGAR®.

[2] = adults and children; cited from earlier work
[3] = Taste test of ethyl benzoate in hot unsweetened cacao drink; type: in vivo, people; settings: 5 ml of 24 micrograms per milliliter solution in one cup hot water with about two tablespoons unsweetened cacao powder
Source text: as §1
Some of the unpleasant taste of unsweetened cacao can be removed by using ethyl benzoate. In one exemplary embodiment to improve the taste of any brand of unsweetened cacao and/or chocolate made therefrom, prepare one cup of hot water and add about two tablespoons of unsweetened HERSHEY® cacao powder. Mix in 5 milliliters (one teaspoon) of a liquid (e.g., water) solution that has, for example, 24 micrograms per milliliters of ethyl benzoate. […]

COC(=O)c1ccccc1 [methyl benzoate]
DIET COKE taste ([1]; about 5 ml of solution of about 24 micrograms per milliliter): taste similar to that of using ethyl benzoate

OC[C@@H](O)[C@H](O)[C@@H](O)CO [xylitol]
taste of resulting beverage ([1]; one teaspoon powdered xylitol dissolved in 1.5 teaspoons ERC-A20, added to 220 ml DIET COKE): An improvement in taste is experienced
safe amounts [2]: less than 20 grams a day

CCOC(=O)c1ccccc1 [ethyl benzoate]
taste and/or aroma versus untreated DIET COKE ([1]; about 5 ml (one teaspoon) of about 24 micrograms per milliliter solution in 7.5 ounces DIET COKE): more pleasant
taste of resulting beverage ([1]; solution of just ethyl benzoate instead of liquid coca leaf extract, about 7.5 ounces DIET COKE): improvement in taste, but lesser of an improvement than with the leaf extract
pleasantness of resulting beverage [3]: more pleasant

CC1=CCC(C(C)C)=CC1 [gamma-terpinene]
taste of resulting DIET COKE ([1]; one half teaspoon, 40 micrograms/milliliter, in 220 ml DIET COKE): while more pleasant as seen with adding alpha-terpineol, also has less of a “coca cola” taste

O=C([O-])c1ccccc1.[Na+] [sodium benzoate]
Coca-Cola taste ([1]; 1/32nd teaspoon (230 milligrams) in 220 ml DIET COKE): No improvement

CC1=CCC(C(C)(C)O)CC1 (stereo not drawn) [alpha-terpineol]
experience of drinking modified DIET COKE ([1]; about one teaspoon of 48 micrograms/milliliter water solution in 220 ml DIET COKE): more pleasant

C=CC(C)(O)CCC=C(C)C (stereo not shown) [linalool]
change in unpleasantness ([1]; one teaspoon, 40 micrograms per milliliter, in 220 ml Diet Coke): little-to-no change
